Where a name gives a salt, the structure may show the parent alone.
Experiments:
[1] = MTT cell viability assay (cytotoxicity), bEnd3; type: cell-based, mouse; conditions: mouse, bEnd3 brain endothelial cells, 1–500 µM
Protocol: Mouse-brain endothelial cell line bEnd3 [36] (CRL-2299) was purchased from the American Type Culture Collection (ATCC, Manassas, VA, USA). The cells were cultured in DMEM (Dulbeco’s modified essential medium) (cat. no. 30-2002, ATCC, Manassas, VA, USA), supplemented with 10% heat-inactivated FBS (cat. no. F7524, Sigma-Aldrich Co. LLC, St. Louis, MO, USA), 1 mM L-glutamine (cat. no. G7513, Sigma-Aldrich Co. LLC, St. Louis, MO, USA) and 1× Antibiotic-Antimycotic solution (penicillin: streptomycin: amphotericin B (100 U/mL: 0.10 mg/mL: 0.25 µg/mL) (cat. no. A5955, Sigma-Aldrich Co. LLC, St. Louis, MO, USA) at 37 °C in a humidified atmosphere containing 5% CO2. The cells were passaged in 75 cm^2 flasks every 3–5 days via trypsinization (StableCell Trypsin solution, cat. no. T2610, Sigma-Aldrich Co. LLC, St. Louis, MO, USA).
(§1) Cell viability was assessed via the mitochondrial reductase-dependent reaction of (3-(4,5-dimethylthiazol-2-yl)- 2,5-diphenyl tetrazolium bromide (MTT, cat. no. 475989, Calbiochem, Merck KGaA, Darmstadt, Germany). The SH-SY5Y and bEnd3 cell lines were seeded in 96-well plates at a density of 0.7 × 10^4 (bEnd3) or 2 × 10^4 (SH-SY5Y) cells/well and allowed to adhere for 24 h at 37 °C, 5% CO2. Then, the cells were incubated with the compounds (1–500 μM) for a preset time (24 h). For the solvent, the control cells were treated with DMSO corresponding to the highest concentration of DMSO in the samples (0.5% DMSO) in order to exclude its cytotoxic effect on the cells. For each concentration, a set of at least 6 wells were used. After incubation, the solution from each well was exchanged with fresh culture medium (100 µL/well), containing the MTT reagent (0.5 mg/mL) and incubated for 3 h at 37 °C in a humidified atmosphere and 5% CO2. The obtained formazan crystals were dissolved in 100 µL/well of 5% formic acid in propan-2-ol solution (or DMSO). The absorbance was measured at 570 nm via multiplate reader Tecan Infinite F200 PRO (Tecan Trading AG., Männedorf, Switzerland) or Synergy 2 (BioTek Instruments, Inc., Highland Park, Winooski, VT, USA).
(§2) Both the SH-SY5Y and bEnd3 cells were treated with the test compounds in a concentration range from 1 to 500 µM for 24 h.

[2] = Fe(II)-induced lipid peroxidation assay (LP assay, TBARS); type: biochemical; conditions: 90 µM, lecithin 1 mg/mL, 0.1 mM FeCl2; lower = stronger antioxidant
Protocol: (§3) The lipid peroxidation assay and a modification of the deoxyribose-degradation assay were used. Two types of measurement compositions in phosphate buffer (PB–K2HPO4/KH2PO4, pH 7.4) were prepared for both tests: (i) samples, containing the biologically relevant molecules (lecithin emulsion or deoxyribose), iron, and the tested hydrazones at the concentrations indicated below the figures; and (ii) controls, in which the tested hydrazones were omitted. The data for the sample activity were presented as a percentage of the control measurement.
The thiobarbituric-acid reactive-substance colorimetric test was performed in a model system of Fe(II)-induced lipid peroxidation as an emulsion prepared from egg yolk phospholipids. Each sample contained 1 mg/mL of lecithin. LP was initiated using 0.1 mM FeCl2. After 30 min incubation at 37 °C, 0.5 mL of 2.8% trichloroacetic acid solution and 0.5 mL of 0.5% thiobarbituric acid solution were added, following a second incubation at 100 °C for 20 min. Centrifugation at 3000 rpm for 20 min at 4 °C was performed, and we determined the absorbance value of the supernatant at 532 nm via Shimadzu UV-1601 UV-VIS spectrophotometer.

[3] = Fe(II)-induced deoxyribose degradation assay; type: biochemical; conditions: 80 µM, 2-deoxyribose 0.5 mM, 0.1 mM FeCl2; lower = stronger antioxidant
Protocol: as §3
The deoxyribose (0.5 mM) damage was induced by adding FeCl2 (0.1 mM). The measurement compositions were incubated at 37 °C for 30 min. The next step comprised adding 0.5 mL of 2.8% trichloroacetic acid and 0.5 mL of thiobarbituric acid. Then, the samples were heated in boiling water for 20 min, and their absorbance was estimated at 532 nm (characteristic band for the generated chromophore) via Shimadzu UV-1601 UV-vis spectrophotometer.

[4] = O-phenanthroline Fe(II) chelation test; type: physicochemical; conditions: 200 µM compound, FeCl2
Protocol: The Fe (II)-chelating activity of the tested hydrazones was determined by the O-phenanthroline method. A total of 1 mL sample solutions of 50 mM PB pH 7 contained 0.2 mM O-phenanthroline and 0.05 mM FeCl2 and 0.2 mM hydrazone. In the controls, the tested compounds were omitted. Absorbance was measured at 515 nm via GENESYS 50 UV-VIS spectrophotometer after incubation for 5 min at 37 °C. The data for the sample activity were presented as a percentage of the control measurement. Absorbance spectra of all the samples, the control, and the measurement compositions containing the tested hydrazones and Fe(II) at the concentrations used in the samples were measured.
To explain the results of both systems of Fe(II)-induced oxidative damage, we studied the potency of the tested compounds to chelate-iron (Fe(II)). This was studied by spectrophotometric determination of free iron (Fe(II)) using the ortho-phenanthroline test, as 1,10-phenantroline reacts rapidly with Fe(II) ions in weakly acidic media, generating an orange–red complex (ferroin) with characteristic absorbance spectra (molar absorptivity 1.10.104 (α = 0.20) at ~max 512 nm and a molar ratio 3:1 (R: Fe(II))). The generated complex was stable, and the bound Fe(II) was resistant to oxidation. Lower absorbance of the reaction mixture indicated higher Fe^2+-chelating activity.

[5] = Superoxide radical scavenging, xanthine/xanthine oxidase/NBT system; type: biochemical
Protocol: The 1 mL cuvette for the control contained 1 mM xanthine, 20 µL xanthine oxidase (100 IU/L), and 0.04 mM NBT [43, 44]. In the sample compositions, the tested hydrazones at different concentrations were added. All measurement compositions were incubated at 37 °C, and the absorbance was determined spectrophotometrically at 560 nm via Shimadzu UV-1601 UV-vis spectrophotometer.
The potential capability of the investigated compounds to prevent the superoxide-anion radical-induced NBT reduction was investigated spectrophotometrically by xanthine-oxidase assay. The assay was carried out at the final concentration of the tested compounds, at 1, 10, 50, and 100 µM.

[6] = tested on: isolated rat-brain synaptosomes; assay: 6-OHDA-induced neurotoxicity in isolated rat synaptosomes, synaptosomal viability; type: cell-based; conditions: Rattus norvegicus; 10 µM pre-incubation 30 min, then 150 µM 6-OHDA 1 h; read-out: synaptosomal viability (SV) preserved, as compared to 6-OHDA
Protocol: (§4) This neurotoxicity model was based on the metabolism and auto-oxidation of 6-hydroxy dopamine responsible for the reactive oxygen species and quinones generation, ultimately leading to neurotoxicity and neurodegeneration. The experiment was performed by pre-incubation of the synaptosomes with 10 µM of the compounds for 30 min, followed by the addition of 150 µM 6-hydroxy dopamine for induction of neurotoxicity. After 1 h, they were centrifuged twice for 1 min at 15,000 × g. After the second wash, the precipitates were resolved with buffer B and glucose.

[7] = MTT cell viability assay (cytotoxicity), SH-SY5Y; conditions: human, SH-SY5Y neuroblastoma cells
Protocol: Neuroblastoma cell line SH-SY5Y (94030304) was acquired from the European Collection of Cell Cultures (ECACC, Salisbury, UK). Cells were cultured in a medium prepared with RPMI basic media supplemented with 10% heat-inactivated FBS (fetal bovine serum), 2 mM L-glutamine, 1% antibiotics (penicillin/streptomycin), and incubated at 37 °C in a humidified atmosphere containing 5% of CO2. The culture’s medium was replaced at a time interval of 2–3 days.
as §1, §2

[8] = tested on: isolated rat-brain synaptosomes; assay: Synaptosomal viability (MTT), substances administered alone
Protocol: (§5) Preparation of the synaptosomes was carried out by multiple centrifugations using the Percoll gradient. Homogenization of the brains was performed in 10 volumes of cold buffer 1, which contained 5 mM HEPES and 0.32 M sucrose (pH = 7.4), followed by centrifugation at different speeds. For preparation of the gradient, the synaptosomes were isolated by Percoll reagent. Synaptosomes were resuspended and incubated in buffer 2, which contained 290 mM NaCl, 0.95 mM MgCl2x6H2O, 10 mM KCl, 2.4 mM CaCl2xH2O, 2.1 mM NaH2PO4, 44 mM HEPES, and 13 mM D-glucose. Incubations were performed in a 5% CO2 + 95% O2 atmosphere. The method of Lowry et al., using bovine serum albumin as a standard content, was applied for determination of synaptosomal protein [51].
Synaptosomal viability was monitored based on a (3-(4,5)-dimethylthiazol-2-yl)-2,5-diphenyl tetrazolium bromide) assay. After incubation with the compounds, synaptosomes were treated with 0.5 mg/mL solution of (3-(4,5)-dimethylthiazol-2-yl)-2,5-diphenyl tetrazolium bromide) for 10 min at […]. Then, the synaptosomes were centrifuged twice at 15,000× g for 1 min. The resulting formazan crystals were dissolved in DMSO (dimethyl sulfoxide), and the extinction was determined by spectrophotometric measurements at 580–660 nm. […]

[9] = tested on: isolated rat-brain synaptosomes; assay: Level of reduced glutathione (GSH) in isolated synaptosomes, substances administered alone
Protocol: as §5
After the treatment with the tested compounds, the glutathione levels of the synaptosomes were determined with an Ellman reagent (DTNB). The GSH levels were evaluated based on the synaptosomal sediment, precipitated with 5% TCA, and centrifuged for 10 min at 4000× g. GSH levels in the supernatant were measured spectrophotometrically at 412 nm by a Spectro UV-vis split spectrophotometer (LaboMed. Inc., Los Angelis, California, USA). […]

SH-SY5Y cells = assay: H2O2-induced oxidative stress model in SH-SY5Y cells; type: cell-based, human; conditions: H2O2 1 mM 15 min
Protocol: The SH-SY5Y cells were seeded in 96-well plates at a density of 3.5 × 10^4/well in 100 μL of RPMI supplemented with FBS for 24 h. Then, the cell medium was aspirated, and the cells were treated with different concentrations of the compounds—1, 10, and 50 µM for 90 min. Afterwards, the SH-SY5Y cells were washed with PBS and were exposed to hydrogen peroxide (H2O2) (1 mM in PBS for 15 min) to induce oxidative stress. All well contents were replaced by fresh culture medium and incubated for 24 h. MTT assay was used to evaluate the amount of attached viable cells. Negative controls (cells without H2O2 treatment) were considered as 100% protection and H2O2-treated cells as 0% protection.
To evaluate the possible neuroprotective effects of the compounds, the SH-SY5Y cells were pre-treated with different concentrations (1, 10, 50 µM) for 90 min and then exposed to H2O2 (1 mM) for 15 min. The cell viability of all compounds was measured to verify their protective effect against the toxicity of hydrogen peroxide.

[10] = tested on: isolated rat-brain synaptosomes; assay: 6-OHDA-induced neurotoxicity in isolated rat synaptosomes, GSH level; type: cell-based; conditions: 10 µM pre-incubation 30 min, then 150 µM 6-OHDA 1 h
Protocol: as §4

SMILES | IC50 at 24 h [1] [µM] | absorbance ratio sample/control (lipid peroxidation) [2] | absorbance ratio, % of the controls (deoxyribose degradation) [3] | absorbance at 515 nm compared to the controls (Fe(II) chelation) [4] | viability at 10 µM [6] [%] | IC50 at 24 h [7] [µM] | also measured
O=C(CCc1c[nH]c2ccccc12)NN=Cc1ccc(O)cc1O [Compound 3c, N′-(2,4-Dihydroxybenzylidene)-3-(1H-indol-3-yl)propanehydrazide] | > 500 | below 65% | did not induce a modulating effect | statistically identical absorbance values at 515 nm, as compared to the controls | 33 | 275 | melting point: 239 to 240 °C; absorbance ratio (NBT reduction, % of control) ([5]; 1, 10, 50 and 100 µM): did not influence the estimated absorbance ratio at any of the tested concentrations
O=C(CCc1c[nH]c2ccccc12)NN=Cc1ccc(O)c(O)c1 [Compound 3b, N′-(3,4-Dihydroxybenzylidene)-3-(1H-indol-3-yl)propanehydrazide] | 352 | below 65% |  | statistically identical absorbance values at 515 nm, as compared to the controls | 33 | 265 | decrease of NBT reduction as compared to the controls ([5]; 100 µM (highest tested concentration)): more than 40%
NCCc1cc(O)c(O)cc1O [Compound 6-OHDA, 6-hydroxydopamine] |  |  |  |  |  |  | decrease of synaptosomal viability (SV) vs. non-treated synaptosomes ([8]; 150 µM): 55%; decrease of GSH level vs. non-treated synaptosomes ([9]; 150 µM): 50%
C#CCN[C@@H]1CCc2ccccc21 [Rasagiline.HCl, Rasagiline] |  |  |  |  | 67 | > 500 | reduction of synaptosomal viability (SV) vs. non-treated synaptosomes ([8]; 100 µM): 25%; reduction of GSH level vs. non-treated synaptosomes ([9]; 100 µM): did not decrease; protective effect: increased cell viability of SH-SY5Y vs. H2O2 group (SH-SY5Y cells; 10 µM pre-treatment 90 min): 40%; protective effect: increased cell viability of SH-SY5Y vs. H2O2 group (SH-SY5Y cells; 50 µM pre-treatment 90 min): 46%; GSH level preserved, as compared to 6-OHDA [10]: 80%
O=c1c(O)c(-c2ccc(O)c(O)c2)oc2cc(O)cc(O)c12 [quercetin, reference compound] |  | 23% | about 50% |  |  |  | 

Reference: publication PMC10135567, “New Indole-3-Propionic Acid and 5-Methoxy-Indole Carboxylic Acid Derived Hydrazone Hybrids as Multifunctional Neuroprotectors” (Antioxidants, 2023)
